{
  "source": "patent US8785416B2",
  "about": "“Sulphated disaccharides for the treatment of neurodegenerative and/or neurovascular diseases” (Bioiberica, S.A., priority 2009, dated 2014)",
  "key": {"[1]": {"test_system": "SH-SY5Y human neuroblastoma cells", "assay": "Generation of intracellular reactive oxygen species (ROS) after hydrogen peroxide, DCFDA fluorescence", "type": "cell-based", "text": "To determine the production of free radicals, the fluorescent probe 2″-7″-dichlorodihydrofluorescein diacetate (DCFDA) was used, which is sensitive to the presence of free radicals, such that when the latter are intracellularly generated there is an increase of fluorescence.\nWhen the fluorescent probe passes into the cell, intracellular esterases hydrolyze the probe, transforming it into DCFH2. Peroxidases, cytochrome C and Fe^2+ can oxidize the probe to DCF in the presence of hydrogen peroxide, and the accumulation of DCF in the cell can be measured as an increase of fluorescence at 530 nm when it is excited at 485 nm.\nSH-SY5Y human neuroblastoma cells were cultured following the procedure described in Example 3.\nFor the fluorescence assays, the cells were seeded in 96-well plates with opaque walls at a density of 10,000 cells/well. […]\nTo evaluate the effects of compound Ic on the generation of ROS, the cells were incubated with increasing concentrations of compound Ic (0.01 and 0.1 μM) for 24 hours and then they were preincubated with the fluorescent probe DCFDA for 45 minutes. Subsequently, the baseline fluorescence of each well, both of the wells containing cells and compound Ic and of those containing only the cells, was quantified. […] The baseline fluorescence of each well containing compound Ic was subtracted from it in order to obtain the net fluorescence. […]"}, "TNFα": {"test_system": "TNFα", "assay": "TNFα production in LPS-activated cerebral cortex astrocytes (RT-PCR)", "type": "cell-based, rat", "conditions": "0.03 μM, simultaneous with 10 μg/mL LPS for 2 hours", "method": "Newborn male rats aged 2-3 days were used. After a craniotomy, both cortices were extracted and deposited in a Petri dish with cold PBS. Under a microscope magnifying lens, the meninges of each cortex were extracted. Once clean, they were submersed in cold DMEM and a mechanical dissection was performed with a pipette. Then, the sample was centrifuged at 1,000 rpm for 5 minutes and the supernatant was decanted. The precipitate was resuspended in DMEM with 20% FBS and a mixture of antibiotics (penicillin/streptomycin). Finally, it was passed through a 70 μm filter and seeded in a 75 cm^2 flask with an aerated filter stopper. The calculation for the seeding of the cells was one flask (15 mL of medium) for every newborn used. […]\nSubsequently, the medium of each flask was collected and taken to 50 mL Falcon tubes, they were centrifuged for 5 minutes at 1,000 rpm and the supernatant was decanted. The precipitate was resuspended in DMEM with 10% FBS and antibiotics and the cells were counted for their subsequent seeding.\nThe induction of inflammation in the astrocytes was performed by means of adding 10 μg/mL lipopolysaccharide together with the compounds to be studied (compound Ic at 0.03 μM and chondroitin sulphate at 10 μM) for 2 hours. […] The quantification was performed by the direct measurement of absorbance at 260/280 nm in a Nanodrop® spectrophotometer. […]"}},
  "data": [
    {"substance": "methyl 2-acetamido-2-deoxy-3-O-(β-D-glucopyranosyluronic acid)-4,6-di-O-sulpho-α-D-glucopyranoside, trisodium salt [compound Ic]", "values": [
      {"measurement": "reduction in the formation of free radicals induced by hydrogen peroxide", "setting": "[1]; 0.1 μM, 24 hours incubation before 50 μM hydrogen peroxide", "value": 40, "unit": "%"},
      {"measurement": "ROS generated by hydrogen peroxide at 30 and 60 minutes", "setting": "[1]; cells treated 24 hours with compound (0.01 and 0.1 μM) before 50 μM hydrogen peroxide", "value": "significantly reduced"},
      {"measurement": "reduction of the production of TNFα", "setting": "TNFα", "value": 75, "unit": "%"}
    ]}
  ]
}
